Data on 19 molecules can be found in patent publication US7034035B2, “Fungicidal mono-, bi-, and tri-cycloheteroalkyl amides and their compositions, methods of use and preparation” (priority 1999, dated 2006).

One assay concerns Septoria tritici—SEPTTR. The assay can be described thus: Leaf Blotch of Wheat, in vivo whole plant, 24 Hour Protectant. The conditions noted are these: inoculated after 24 hours; for pest or weed control at 100 ppm: Zymoseptoria tritici, read-out: SEPTTR in vivo 1 Day Protectant.
The test system of assay [1] is Leptosphaeria nodorum—LEPTNO. The assay can be described thus: Glume Blotch of Wheat, in vivo whole plant, 24 Hour Protectant. The conditions noted are these: for pest or weed control at 100 ppm: Leptosphaeria, 24 h, read-out: LEPTNO in vivo 1 Day Protectant.
Assay [2] deals with Phytophthora infestans—PHYTIN. The assay can be described thus: whole plant or invertebrate. In kind it is in vivo. As to conditions: for pest or weed control at 100 ppm: Phytophthora, in Solanum lycopersicum, 24 h, read-out: PHYTIN in vivo 1 Day Protectant.
In the next assay the test system is Erysiphe graminis—ERYSGT. Nature of the assay: Powdery Mildew of Wheat, in vivo whole plant, 24 Hour Protectant. The conditions noted are these: for pest or weed control at 100 ppm: Erysiphe, in Triticum aestivum, 24 h, read-out: ERYSGT in vivo 1 Day Protectant; for ERYSGT in vivo 1 Day Protectant: inoculated after 24 hours.
In assay [3] the test system is Puccinia recondita—PUCCRT. Nature of the assay: Brown Rust of Wheat, in vivo whole plant, 24 Hour Protectant. As to conditions: inoculated after 24 hours; for pest or weed control at 100 ppm: Puccinia, read-out: PUCCRT in vivo 1 Day Protectant.
The subject of another assay is Ustilago maydis (USTIMA). The assay can be described thus: microbe, parasite or virus in culture. In kind it is cell-based.
Assay [4] relates to Rhizoctonia solani (RHIZSO). Nature of the assay: microbe, parasite or virus in culture. The assay is classed as cell-based.
[5] abbreviates: wheat plants sprayed at 100 ppm, control vs untreated plants.
Where [6] appears, read: wheat plants sprayed at 100 ppm, inoculated after 24 hours, control vs untreated plants.
Setting [7] is: wheat (cultivar Yuma), sprayed at 100 ppm, control of fungal infection vs untreated plants.
The mark [8] stands for this setting: wheat (cultivar Yuma), sprayed at 100 ppm, inoculated after 24 hours, control of fungal infection vs untreated plants.

Where two headings read alike, the source gives them in different places. Bounds are passed on as bounds.

For `COc1ccnc(C(=O)NC2COC(=O)[C@H](Cc3ccccc3)[C@@H](OC(=O)C(C)C)[C@H](C)OC2=O)c1O` (some centres unmarked) [Compound 475], the pest or weed control at 100 ppm in the assay with Septoria tritici—SEPTTR (setting [5]) was 25 to 74%; in assay [1] (setting [6]), 75 to 100%; in assay [2], below 25%; with Erysiphe graminis—ERYSGT, below 25%; in assay [3] (setting [5]) it was 25 to 74%.
In the case of `CC(C)C(=O)O[C@H]1[C@H](C)OC(=O)[C@@H](NC(=O)c2nsnc2O)COC(=O)[C@@H]1Cc1ccccc1` [Compound 553], the pest or weed control at 100 ppm in assay [1] (setting [6]) and in assay [2] was 75 to 100% throughout.
With `O=C(Nc1cccc(Oc2cccc(C(F)(F)F)c2)c1)c1nc(Br)ccc1O` [Compound 497], the “SEPTTR in vivo 1 Day Protectant” value in the assay with Septoria tritici—SEPTTR (setting [5]) is on record as “+ (25-74% control of fungal infection)”. Besides, in assay [1] (setting [6]), the “LEPTNO in vivo 1 Day Protectant” value is listed as “+ (25-74% control of fungal infection)”. Moreover, in assay [2] (tomato plants sprayed at 100 ppm, inoculated after 24 hours, control vs untreated plants), the “PHYTIN in vivo 1 Day Protectant” value was “− (<25% control of fungal infection)”. In addition, in the assay with Erysiphe graminis—ERYSGT (setting [5]), the “ERYSGT in vivo 1 Day Protectant” value is “− (<25% control of fungal infection)”. For the same molecule, the “PUCCRT in vivo 1 Day Protectant” value in assay [3] (setting [5]) is recorded as “+ (25-74% control of fungal infection)”.
As for `COc1ccnc(C(=O)NCC#Cc2ccccc2)c1O` [Compound 240], the “USTIMA in vitro Growth Inhibition” value in the assay with Ustilago maydis (USTIMA) is “− (key: +: at least 80% growth inhibition; −: less than 80% growth inhibition)”. Besides, in the assay on Septoria tritici—SEPTTR (setting [7]), the pest or weed control at 100 ppm lay within 75 to 100%. In addition, in assay [4], the “RHIZSO in vitro Growth Inhibition” value is reported as “− (key: +: at least 80% growth inhibition; −: less than 80% growth inhibition)”.
Regarding `COc1ccnc(C(=O)N[C@@H](Cc2ccc(OCc3ccccc3)cc2)C(=O)OCc2ccccc2)c1O` [Compound 339], the “USTIMA in vitro Growth Inhibition” value with Ustilago maydis (USTIMA) is “− (key: +: at least 80% growth inhibition; −: less than 80% growth inhibition)”. Also, the pest or weed control at 100 ppm (with Septoria tritici—SEPTTR (setting [7]); in assay [1] (setting [8]); in assay [3] (setting [7])) was 75 to 100% throughout. Further, the “RHIZSO in vitro Growth Inhibition” value in assay [4] is “− (key: +: at least 80% growth inhibition; −: less than 80% growth inhibition)”.
Turning to `CCCC[C@H]1C(=O)O[C@H](C)C(NC(=O)c2cccc(NC(=O)c3nccc(OC)c3O)c2O)C(=O)O[C@@H](C)[C@@H]1OC(=O)CC(C)C` (some centres unmarked) [Compound 473], the “SEPTTR in vivo 1 Day Protectant” value in the assay on Septoria tritici—SEPTTR (setting [5]) is “+ (25-74% control of fungal infection)”. The pest or weed control at 100 ppm in assay [1] fell in the range of 75 to 100%. Also, the “ERYSGT in vivo 1 Day Protectant” value in the assay on Erysiphe graminis—ERYSGT (setting [5]) is given as “− (<25% control of fungal infection)”. The “PUCCRT in vivo 1 Day Protectant” value in assay [3] (setting [5]) is “+ (25-74% control of fungal infection)”.
Turning to `COc1ccnc(C(=O)NC2CC(C)(C)/C=C\CC(C)(C)C2)c1O` (centres unmarked) [Compound 283], the “USTIMA in vitro Growth Inhibition” value in the assay with Ustilago maydis (USTIMA) is “− (key: +: at least 80% growth inhibition; −: less than 80% growth inhibition)”. For the same molecule, in the assay on Septoria tritici—SEPTTR (setting [7]), the pest or weed control at 100 ppm fell in the range of 75 to 100%. Also, in assay [4], the “RHIZSO in vitro Growth Inhibition” value is recorded as “− (key: +: at least 80% growth inhibition; −: less than 80% growth inhibition)”.
In the case of `COc1cccc(Oc2ccc(NC(=O)c3nccc(OC)c3O)cc2)c1` [Compound 435], the “SEPTTR in vivo 1 Day Protectant” value with Septoria tritici—SEPTTR (setting [7]) is on record as “− (<25% control of fungal infection)”. In assay [1] (setting [8]), the “LEPTNO in vivo 1 Day Protectant” value is “+ (25-74% control of fungal infection)”. The pest or weed control at 100 ppm with Erysiphe graminis—ERYSGT is below 25%. The “PUCCRT in vivo 1 Day Protectant” value in assay [3] (setting [7]) is “− (<25% control of fungal infection)”.
Turning to `COc1ccnc(C(=O)NC2CC(C)(C)C(Oc3cc(C(F)(F)F)cc(C(F)(F)F)n3)C(C)(C)C2)c1O` (centres unmarked) [Compound 272], in the assay on Ustilago maydis (USTIMA), the “USTIMA in vitro Growth Inhibition” value was “− (key: +: at least 80% growth inhibition; −: less than 80% growth inhibition)”. In addition, in the assay with Septoria tritici—SEPTTR (setting [7]), the pest or weed control at 100 ppm lay within 75 to 100%. In addition, in assay [4], the “RHIZSO in vitro Growth Inhibition” value is listed as “− (key: +: at least 80% growth inhibition; −: less than 80% growth inhibition)”.
For `COC(=O)C(COC(=O)C(CO[Si](C)(C)C(C)(C)C)Cc1ccccc1)NC(=O)c1nccc(OC)c1O` (centres unmarked) [Compound 350], the pest or weed control at 100 ppm was below 25% in the assay on Septoria tritici—SEPTTR (setting [7]); 75 to 100% in assay [1] (setting [8]); below 25% in assay [2]; below 25% with Erysiphe graminis—ERYSGT; 75 to 100% in assay [3] (setting [7]).
Take `COc1ccnc(C(=O)N[C@H]2COC(=O)[C@H](Cc3ccccc3)[C@@H](OCC(C)C)[C@H](C)OC2=O)c1O` [Compound 384]: the pest or weed control at 100 ppm (in assay [1] (setting [8]); in the assay on Erysiphe graminis—ERYSGT) was 75 to 100% in each case.
On to `CCC1(C)CC(NC(=O)c2nccc(OC)c2O)CC(C)(C)C1` (centres unmarked) [Compound 251], for which the “USTIMA in vitro Growth Inhibition” value in the assay on Ustilago maydis (USTIMA) is recorded as “− (key: +: at least 80% growth inhibition; −: less than 80% growth inhibition)”. Besides, the pest or weed control at 100 ppm (with Septoria tritici—SEPTTR (setting [7]); in assay [1] (setting [8]); in assay [3] (setting [7])) was 75 to 100% in each case. In assay [4], the “RHIZSO in vitro Growth Inhibition” value is given as “− (key: +: at least 80% growth inhibition; −: less than 80% growth inhibition)”.
For the molecule `CCC(C)C(=O)O[C@H]1[C@H](C)OC(=O)[C@@H](NC(=O)c2nccc(OC)c2O)COC(=O)[C@@H]1Cc1ccccc1` (some centres unmarked) [Compound 389], the pest or weed control at 100 ppm was 25 to 74% with Septoria tritici—SEPTTR (setting [7]); 75 to 100% in assay [1] (setting [8]); below 25% in assay [2]; below 25% in the assay with Erysiphe graminis—ERYSGT; 25 to 74% in assay [3] (setting [7]).
For the molecule `COc1ccnc(C(=O)N[C@H]2COC(=O)[C@H](Cc3ccccc3)[C@@H](OC(=O)Cc3ccccc3)[C@H](C)OC2=O)c1O` [Compound 395], the “SEPTTR in vivo 1 Day Protectant” value with Septoria tritici—SEPTTR (setting [7]) is “+ (25-74% control of fungal infection)”. In assay [1] (setting [8]), the “LEPTNO in vivo 1 Day Protectant” value is on record as “+ (25-74% control of fungal infection)”. In addition, in the assay with Erysiphe graminis—ERYSGT (wheat (cultivar Monon), sprayed at 100 ppm, control of fungal infection vs untreated plants), the “ERYSGT in vivo 1 Day Protectant” value is “− (<25% control of fungal infection)”. In assay [3] (setting [7]), the “PUCCRT in vivo 1 Day Protectant” value is reported as “+ (25-74% control of fungal infection)”.
Take `COc1ccnc(C(=O)NC2C3CC4C(C3Cl)C42)c1O` (centres unmarked) [Compound 304]: the “USTIMA in vitro Growth Inhibition” value with Ustilago maydis (USTIMA) is given as “− (key: +: at least 80% growth inhibition; −: less than 80% growth inhibition)”. The pest or weed control at 100 ppm in the assay on Septoria tritici—SEPTTR (setting [7]) was in the range of 75 to 100%. The “RHIZSO in vitro Growth Inhibition” value in assay [4] is on record as “+ (key: +: at least 80% growth inhibition; −: less than 80% growth inhibition)”.
As for `COc1ccnc(C(=O)N[C@H]2COC(=O)[C@H](CC3CCCC3)[C@@H](OC(=O)C(C)C)[C@H](C)OC2=O)c1O` [Compound 402], the pest or weed control at 100 ppm (in assay [1] (setting [8]); in the assay with Erysiphe graminis—ERYSGT) was 75 to 100% in each case.
For `COc1ccnc(C(=O)NC2C(=O)c3ccc(-c4ccco4)cc3OC2C)c1O` (centres unmarked) [Compound 323], in the assay on Ustilago maydis (USTIMA), the “USTIMA in vitro Growth Inhibition” value is “− (key: +: at least 80% growth inhibition; −: less than 80% growth inhibition)”. Besides, the pest or weed control at 100 ppm (with Septoria tritici—SEPTTR (setting [7]); in assay [1] (setting [8])) was 75 to 100% in each case. In assay [4], the “RHIZSO in vitro Growth Inhibition” value was “+ (key: +: at least 80% growth inhibition; −: less than 80% growth inhibition)”.
As to `COc1ccnc(C(=O)N[C@H]2COC(=O)[C@H](Cc3ccccc3)[C@@H](OC(=O)CC(C)C)[C@H](C)OC2=O)c1O` [Compound 390], the pest or weed control at 100 ppm was 25 to 74% with Septoria tritici—SEPTTR (setting [7]); 75 to 100% in assay [1] (setting [8]); below 25% in assay [2]; below 25% in the assay on Erysiphe graminis—ERYSGT; 25 to 74% in assay [3] (setting [7]).
Take `COc1ccnc(C(=O)NC(COC(=O)CCc2ccccc2)C(=O)OC(C)COC(=O)C(C)C)c1O` (centres unmarked) [Compound 359]: the pest or weed control at 100 ppm (in the assay with Septoria tritici—SEPTTR (setting [7]); in assay [3] (setting [7])) was 75 to 100% in each case.
